This is an account of results in patent US9879050B2, “Substituted urea depsipeptide analogs as activators of the CLPP endopeptidase” (priority 2013, dated 2018).

Each structure is given as a SMILES string. ≈ marks a conversion by molar mass, not a printed value. Read-outs that look alike come from different tables or passages of the source.

The target of series [1] is T1, Sa-ClpP (Staphylococcus aureus, UniProt Q2G036).
T1 construct: made in house; host or cells: E. coli BL21 (DE3)
As to the kind of experiment: ClpP activation, EnzCheck Protease Assay with Bodipy-FL casein (second described method). Format: biochemical, S. aureus. Here is the method:
Alternatively, the assay was carried out using EnzCheck Protease Assay (Molecular Probes, Catalog #E6638). The assay was performed in black 384 well, flat bottom, low volume plates (Greiner Bio-One, Monroe, N.C., catalog #784076). 10 μL of Tris.HCl buffer, pH 8.0 with 0.01% Triton X-100 was pipetted into each well using a Well-Mate (Thermo Scientific, Waltham, Mass.). 0.4 μL test compounds or controls (2% DMSO v/v) were added to each well using a Biomek FX liquid handling robot (Beckman Coulter, Indianapolis Ind.). After addition of test compounds and controls, 10 μL of master mix containing 2 μM Sa-ClpP and 2 μM substrate (Bodipy-FL labeled casein) in Tris*HCl buffer, pH 8.0 with 0.01% (v/v) Triton X-100, was pipetted into each well. All assays were performed in triplicate, under linear velocity conditions. Increase in fluorescent signal following activation of Sa-ClpP by test compounds and controls was measured over time period of 30 mins using filters with excitation at 485±15 nm and emission at 520±25 nm on a PHERAstar FS Multilabel reader (BMG, Cary, N.C.). […] Data analysis was done by measuring rate of casein degradation over time (slopes). Computed degradation rates (slopes) were normalized to positive (ADEP4) or negative (DMSO) controls. Using nonlinear regression curve fitting EC50 values and % activation were determined using the equation “log [agonist]vs. Response-variable slope (four parameters)-symmetrical” in the program Prism 6 (GraphPad Software, La Jolla, Calif. USA, www.graphpad.com).

The test system of another series is S. pneumoniae R6. Nature of the series: Minimal inhibitory concentration, microbroth dilution. It counts as cell-based. Conditions: Streptococcus pneumoniae, R6; read-out: Minimal Inhibitory Concentration S. pneumoniae R6. Here is the method:
Minimal inhibitory concentrations (“MICs”) were determined using the microbroth dilution method according to Clinical Laboratory Standards Institute (CLSI; National, C.F. C. L. S., Methods for Dilution Antimicrobial Susceptibility Tests for Bacteria Grow aerobically-Seventh Edition: Approved Standard M7-A7, CLSI, Wayne, Pa., USA, 2008) and were read by visual inspection. Two fold serial dilutions of test compound in 100 μL of the appropriate broth media were first prepared in 96-well round bottom microtiter plates (Nalgene Nunc International, Rochester, N.Y., USA). […] The plates were then incubated aerobically at 37° C. All strains were incubated overnight. After incubations, in all cases the MIC was recorded as the lowest concentration of drug that prevented bacterial growth. The bacterial strains for which MIC was determined as described in Table 4.
Background: Broth dilution looks for growth in wells or tubes with falling amounts of substance.

Series [2] has as its target T1, Sa-ClpP. Nature of the series: ADEP displacement fluorescence polarization assay. It counts as binding, S. aureus. Here is the method: A fluorescence polarization (FP) assay was used to determine the activity of the disclosed compounds in displacing an ADEP analogue from ClpP. Briefly, the assay was performed in black 384 well, flat bottom, low volume plates (Greiner Bio-One, Monroe, N.C., catalog #784076). 20 μL of a pre-equilibrated (1 hr, room temperature) master mix (1 μM Sa-ClpP, 2% DMSO (v/v) and 50 nM FP probe in Tris*HCl, pH 8.0)) was pipetted into each well using a Well-Mate (Thermo Scientific, Waltham, Mass.). Sa-ClpP was prepared as described above for the ClpP activation assay. The FP probe was ADEP 2591 (structure shown above). The ADEP 2591 comprises a TAMRA fluorophore linked to a core based on modified ADEP 2378 via a short alkyl linker. Using pin transfer, approximately 0.4 μL (2% v/v DMSO) of each compound or control was added per well. After addition of compounds and controls, plates were allowed to incubate for an additional 120 minutes at room temperature. All assays were performed in triplicate. Polarization was monitored using an EnVision Multilabel reader (Perkin-Elmer, Waltham, Mass.) by exciting the FP probe at 530±25 nm, and monitoring fluorescence intensity of both parallel and perpendicular polarized light at 579±25 nm. Readout was in millipolarization units (mP).
Signal gain and G factors were determined in wells containing 20 μM ADEP 2378, which had been previously verified (data not shown) as containing completely unbound ADEP 2591. Data collected was normalized to values obtained from positive (20 μM ADEP 2378) or negative (DMSO) controls. Curves were fit with non-linear regression using the equation “log [inhibitor]vs. Response-variable slope (four parameters)-symmetrical” in the program Prism 6 (GraphPad Software, La Jolla, Calif. USA, www.graphpad.com). The structures for ADEP 2378 and ADEP 2591 are shown above. ADEP 2378 is (E)-N-((S)-1-(((2R,6S,8aS,14aS,20S,23aS)-2,6-dimethyl-5,8,14,19,23-pentaoxooctadecahydro-1H,5H,14H,19H-pyrido[2,1-i]dipyrrolo[2,1-c:2′,1′-1][1]oxa[4,7,10,13]tetraazacyclohexadecin-20-yl)amino)-1-oxo-3-phenylpropan-2-yl)pent-2-enamide. ADEP 2591 is 5-(3-(3-((6S,9S,11aS,17S,20aS)-6,10-dimethyl-5,8,11,16,20-pentaoxo-17-((S)-2-((E)-pent-2-enamido)-3-phenylpropanamido)hexadecahydro-1H,5H,16H-dipyrrolo[2,1-c:2′,1′-1][1]oxa[4,7,10,13]tetraazacyclohexadecin-9-yl)propyl)thioureido)-2-(6-(dimethylamino)-3-(dimethyliminio)-3H-xanthen-9-yl)benzoate.
Background: In fluorescence polarisation assays a small probe gives low polarisation when free and higher when bound to something large.

The next series concerns S. aureus USA 300 ΔClpP. As to the kind of experiment: Minimal inhibitory concentration, microbroth dilution. Format: cell-based, Staphylococcus aureus. Conditions: ClpP inactivated strain. Here is the method:
Minimal inhibitory concentrations (“MICs”) were determined using the microbroth dilution method according to Clinical Laboratory Standards Institute (CLSI; National, C.F. C. L. S., Methods for Dilution Antimicrobial Susceptibility Tests for Bacteria Grow aerobically-Seventh Edition: Approved Standard M7-A7, CLSI, Wayne, Pa., USA, 2008) and were read by visual inspection. Two fold serial dilutions of test compound in 100 μL of the appropriate broth media were first prepared in 96-well round bottom microtiter plates (Nalgene Nunc International, Rochester, N.Y., USA). An equivalent volume (100 μL) of bacterial broth inocula containing approximately 10^5 bacterial cfu/mL was added to each well to give final concentrations of test compound starting at 200 μM. The plates were then incubated aerobically at 37° C. All strains were incubated overnight. After incubations, in all cases the MIC was recorded as the lowest concentration of drug that prevented bacterial growth. The bacterial strains for which MIC was determined as described in Table 4.

Series [3] can be described thus: Cytotoxicity assay, CellTiter-Glo cell viability. It counts as cell-based. Conditions: African green monkey. As to the method: Cytotoxicity was determined by determining the effect of compounds on cell viability. Vero (kidney epithelial cells; ATCC CCL-81) monolayers were trypsinized and 5000 cells/well were seeded (10-15% confluency) into white-wall, flat bottom 96 well microwell plates (Corning) using enriched Dulbecco's Modified Eagle's Medium (Hyclone: DMEM/High Glucose) containing 10% Fetal Bovine Serum (ATCC-30-2020). Plates were incubated overnight at 37° C. in the presence of 5% CO2. Drug-free media was then replaced with media containing serial dilutions of test compound or DMSO carrier. After an additional 72 hours of incubation, viability was indirectly measured using the CellTiter-Glo® Luminescent Cell Viability (Promega) assay. Assay plates were read at peak emission wavelength of 560 nm using a EnVision® Multilabel Plate Reader (Perkin Elmer) or PHERAstar FS Multilabel reader (BMG, Cary, N.C.). […] USA, www.graphpad.com]. For each experiment, compounds were tested in duplicate. IC50 values presented are the range of two biologically independent experiments.
In general terms: Cellular ATP, detected with luciferase, serves as a proxy for viable cell number.

T1 sequence (Q2G036 whole entry): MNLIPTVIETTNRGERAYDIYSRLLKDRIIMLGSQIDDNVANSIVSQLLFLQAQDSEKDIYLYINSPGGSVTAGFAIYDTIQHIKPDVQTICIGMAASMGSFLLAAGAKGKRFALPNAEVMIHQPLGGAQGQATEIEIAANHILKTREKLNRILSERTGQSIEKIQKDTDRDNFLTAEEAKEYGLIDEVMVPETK

`CCc1ccc(NC(=O)N[C@@H](Cc2cc(F)cc(F)c2)C(=O)N[C@@H]2C(=O)N3CCCC3C(=O)N(C)[C@@H](C)C(=O)N[C@@H](C)C(=O)N3CCCC3C(=O)O[C@H]2C)cc1` (stereo partly drawn) [Compound 29, (2S)-3-(3,5-Difluorophenyl)-2-(3-(4-Ethylphenyl)Ureido)-N-((6S,9S,11aS,17S,18S)-6,9,10,18-Tetramethyl-5,8,11,16,20-Pentaoxohexadecahydro-1H,5H,16H-Dipyrrolo[2,1-C:2′,1′-L][1]Oxa[4,7,10,13]Tetraazacyclohexadecin-17-Yl)Propanamide] came in with an EC50 at Sa-ClpP [1] of 0.25 ± 0.02 µM. Further, the MIC with S. pneumoniae R6 stood at 0.031 µM (≈ 0.0242 µg/mL). The same molecule showed an IC50 on Sa-ClpP [2] of 5.9 ± 0.2 µM. Also, in the series with S. aureus USA 300 ΔClpP, the “Minimal Inhibitory Concentration S. aureus USA 300 ΔClpP” value stood at 100 µM. It took 26.8 ± 1.3 µM to reach half-maximal inhibition in series [3] (IC50 at 72 h).
In the same order, the values of `C[C@@H]1CC2C(=O)O[C@@H](C)[C@H](NC(=O)[C@H](Cc3cc(F)cc(F)c3)NC(=O)Nc3ccc(OC(F)(F)F)cc3)C(=O)N3CCCC3C(=O)N3CCCCC3C(=O)N[C@@H](C)C(=O)N2C1` (stereo partly drawn) [Compound 40, (S)-3-(3,5-Difluorophenyl)-2-(3-(4-(Trifluoromethoxy)Phenyl)Ureido)-N-((2R,6S,8aS,14aS,20S,21S,23aS)-2,6,21-Trimethyl-5,8,14,19,23-Pentaoxooctadecahydro-1H,5H,14H,19H-Pyrido [2,1-I]Dipyrrolo[2,1-C:2′,1′-L][1]Oxa[4,7,10,13]Tetraazacyclohexadecin-20-Yl)Propanamide] are 0.36 ± 0.03 µM, 0.1 µM (≈ 0.0878 µg/mL), 12.7 ± 0.7 µM, 25 µM and 43.8 ± 5.1 µM.
In the same order, the values of `C[C@H]1CC2C(=O)O[C@@H](C)[C@H](NC(=O)[C@H](Cc3cc(F)cc(F)c3)NC(=O)Nc3ccc(OC(F)(F)F)cc3)C(=O)N3C[C@H](O)CC3C(=O)N(C)[C@@H](C)C(=O)N[C@@H](C)C(=O)N2C1` (stereo partly drawn) [Compound 32, (S)-3-(3,5-Difluorophenyl)-N-((2S,6S,9S,11aS,13R,17S,18S,20aS)-13-Hydroxy-2,6,9,10,18-Pentamethyl-5,8,11,16,20-Pentaoxohexadecahydro-1H,5H,16H-Dipyrrolo[2,1-C:2′,1′-L][1]Oxa[4,7,10,13]Tetraazacyclohexadecin-17-Yl)-2-(3-(4-(Trifluoromethoxy)Phenyl)Ureido)Propanamide] are 0.4 ± 0.01 µM, 0.049 µM (≈ 0.0425 µg/mL), 7 ± 0.4 µM, 100 µM and 28.3 ± 0.6 µM.
At Sa-ClpP [1], `CCc1ccc(NC(=O)N[C@@H](Cc2cc(F)cc(F)c2)C(=O)N[C@@H]2C(=O)N3CCCC3C(=O)N(C)[C@@H](C)C(=O)N[C@@H](C)C(=O)N3C[C@@H](C)CC3C(=O)O[C@H]2C)cc1` (stereo partly drawn) [Compound 30, (S)-3-(3,5-Difluorophenyl)-2-(3-(4-Ethylphenyl)Ureido)-N-((2S,6S,9S,11aS,17S,18S,20aS)-2,6,9,10,18-Pentamethyl-5,8,11,16,20-Pentaoxohexadecahydro-1H,5H,16H-Dipyrrolo[2,1-C:2′,1′-L][1]Oxa[4,7,10,13]Tetraazacyclohexadecin-17-Yl)Propanamide] registered an EC50 of 0.43 ± 0.02 µM. For the same molecule, the MIC in the series on S. pneumoniae R6 was found to be 0.008 µM (≈ 0.00637 µg/mL). This molecule also came in with an IC50 at Sa-ClpP [2] of 4 ± 0.1 µM. Further, the “Minimal Inhibitory Concentration S. aureus USA 300 ΔClpP” value in the series with S. aureus USA 300 ΔClpP amounted to 50 µM. In series [3], this molecule gave an IC50 at 72 h of 28.8 ± 3.7 µM.
At Sa-ClpP [1], `C[C@H]1CC2C(=O)OC[C@H](NC(=O)[C@H](Cc3cc(F)cc(F)c3)NC(=O)Nc3ccc4c(c3)OCO4)C(=O)N3CCCC3C(=O)N3CCCCC3C(=O)N[C@@H](C)C(=O)N2C1` (stereo partly drawn) [Compound 46, (S)-2-(3-(Benzo[D][1,3]Dioxol-5-Yl)Ureido)-3-(3,5-Difluorophenyl)-N-((2S,6S,8aS,14aS,20S,23aS)-2,6-Dimethyl-5,8,14,19,23-Pentaoxooctadecahydro-1H,5H,14H,19H-Pyrido[2,1-I]Dipyrrolo[2,1-C:2′,1′-L][1]Oxa[4,7,10,13]Tetraazacyclohexadecin-20-Yl)Propanamide] gave an EC50 of 0.32 ± 0.02 µM. Moreover, the MIC in the series with S. pneumoniae R6 turned out to be 0.4 µM (≈ 0.33 µg/mL). Also, the IC50 on Sa-ClpP [2] amounted to 4.61 ± 0.2 µM. In addition, in the series with S. aureus USA 300 ΔClpP, the “Minimal Inhibitory Concentration S. aureus USA 300 ΔClpP” value was determined as 200 µM. The IC50 at 72 h in series [3] (Vero kidney epithelial cells (ATCC CCL-81), Vero cells, 72 hours, read-out: Cytotoxicity IC50) stood at 71.8 ± 5.4 µM.

What is called EC50 is the concentration needed to bring the measured effect to its halfway point. A word on the IC50: it is the midpoint of a concentration-inhibition curve.
